Assay results as given in patent US11510980B2, “Brartemicin analogues” (VICTORIA LINK LTD, priority 2017, dated 2022).

Experiments:
[1] = target: T1, hMincle-Ig (Homo sapiens, UniProt Q9ULY5); experiment: In vitro Mincle binding assay (ELISA) with hMincle-Ig fusion protein; settings: plate-coated ligand 0.1 nmol/well
T1 construct: using soluble Mincle-Ig fusion-proteins; made in house
T1 sequence (Q9ULY5 41-219 limits assumed): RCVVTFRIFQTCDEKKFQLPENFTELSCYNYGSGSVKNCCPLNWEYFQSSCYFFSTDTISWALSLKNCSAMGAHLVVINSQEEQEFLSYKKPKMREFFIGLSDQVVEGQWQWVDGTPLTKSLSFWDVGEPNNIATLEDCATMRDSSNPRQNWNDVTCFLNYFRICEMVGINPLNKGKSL
Protocol: (§1) Preparation of ligand-coated plates: Brartemicin analogues 9a-9i, TDM (Carbosynth, Sigma Aldrich), and TDB^14 were dissolved in CHCl3:MeOH (2:1, 1 mM), diluted in isopropanol ([…]) and added to 96-well plates (20 μL/well). The solvents were evaporated and the coated plates were used immediately.
(§2) In vitro Mincle binding assay: The preparation of mMincle- and hMincle-Ig fusion proteins have been previously described. Plate-coated glycolipids 9a-i, TDB, and TDM were incubated with hMincle-Ig, mMincle-Ig, or hIgG1-Fc (Ig) [3 μg/mL in binding buffer (20 mM Tris-HCl, 150 mM NaCl, 1 mM CaCl2), 2 mM MgCl2, pH 7.0)]. Detection of bound protein was achieved via incubation with anti-hIgG-HRP followed by the addition of a colorimetric substrate and measurement of OD at 450 nm. Background was accounted for by subtracting the hIgG1-Fc OD450 values from fusion protein OD450 values
(§3) The synthesised brartemicin analogues prepared in Example 1 were first tested for their ability to bind to both human and murine Mincle in an enzyme-linked immunosorbent assay (ELISA) using soluble Mincle-Ig fusion-proteins (FIG. 1a).

[2] = target: T2, mMincle-Ig (Mus musculus, UniProt Q9R0Q8); experiment: In vitro Mincle binding assay (ELISA) with mMincle-Ig fusion protein; design: species or system murine; settings: plate-coated ligand 0.1 nmol/well
T2 construct: using soluble Mincle-Ig fusion-proteins; made in house
T2 sequence (Q9R0Q8 46-214 limits assumed): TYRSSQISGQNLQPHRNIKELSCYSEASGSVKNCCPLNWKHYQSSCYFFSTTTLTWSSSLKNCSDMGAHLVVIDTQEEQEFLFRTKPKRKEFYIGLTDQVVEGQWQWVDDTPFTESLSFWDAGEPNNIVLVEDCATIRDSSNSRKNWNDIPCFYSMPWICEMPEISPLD
Protocol: as §1, §2, §3

[3] = target: T3, mMincle+FcRγ (Mus musculus, UniProt Q9R0Q8); experiment: 2B4-NFAT-GFP reporter cells expressing mMincle+FcRγ; type: cell-based, murine; settings: ligand-coated plates 0.01, 0.1 or 1 nmol/well, 18 hours
T3 construct: expressed in transfected cells; host or cells: 2B4-NFAT-GFP reporter cells
T3 sequence (Q9R0Q8 1-214): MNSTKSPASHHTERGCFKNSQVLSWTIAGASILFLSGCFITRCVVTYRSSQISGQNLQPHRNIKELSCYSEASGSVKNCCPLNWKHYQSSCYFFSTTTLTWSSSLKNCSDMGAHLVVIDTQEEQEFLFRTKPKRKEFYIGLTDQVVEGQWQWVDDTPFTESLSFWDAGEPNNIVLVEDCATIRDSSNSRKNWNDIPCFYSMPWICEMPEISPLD
T3 sequence (P20491 19-86 partner): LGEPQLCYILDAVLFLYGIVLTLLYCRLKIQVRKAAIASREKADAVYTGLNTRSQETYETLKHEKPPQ
Protocol: as §1
(§4) 2B4-NFAT-GFP reporter cells: 2B4-NFAT-GFP reporter cells expressing mMincle+FcRγ, hMincle+FcRγ, or FcRγ only have been previously described. […] The reporter cells were harvested, stained with propidium iodide, and analysed for NFAT-GFP expression using flow cytometry (FACS Calibur).
(§5) To determine whether the Mincle binding observed in Example 1 correlated with cellular activation, nuclear factor of activated T cells (NFAT)-green fluorescent protein (GFP) reporter cells expressing mMincle or hMincle coupled to FcRγ were stimulated using plates coated with TDM, TDB, brartemicin (9i), or analogues 9a-9h.
(§6) Activation of the reporter cells was measured through the production of GFP, which was monitored by flow cytometry (FIGS. 1b and 3c).
(§7) With the compounds 43a-h in hand, the ability of these analogues to bind and signal through Mincle was assessed (FIG. 5). Accordingly, NFAT-GFP reporter cells expressing mMincle+FcRγ, hMincle+FcRγ, or FcRγ-only were stimulated with the 2G-brartemicin analogues 43a-h, TDB, iPrOH, or the p-OC18H37 substituted analogue, 9f. Reporter cell activation was measured by the production of NFAT-GFP, which was analysed by flow cytometry.

[4] = system: wild-type GM-CSF BMDMs; experiment: Cytokine/chemokine production by wild-type GM-CSF BMDMs on ligand-coated plates; type: cell-based, C57BL/6 mice; settings: for IL-1β production / IL-6 production / MIP-2 production / TNF production: wild-type BMDMs, coated plates 0.1 or 1 nmol/well, 24 hours, ELISA
Protocol: as §1
Murine bone-marrow derived macrophages: For the preparation of murine bone-marrow derived macrophages, bone marrow cells were collected from the tibias and femurs of C57BL/6 mice and cultured (250,000 cells/mL) in complete RPMI media [RPMI-1640 (Gibco) with 10% heat inactivated fetal bovine serum (Gibco), 100 unit/mL penicillin-streptomycin (Gibco) and 2 mM Glutamax (Gibco)] supplemented with 50 ng/mL GM-CSF (clone X63/GM-CSF murine cells). Cells were incubated at 37° C. (5% CO2) for 8 days (cells fed by replacing half the media on days 3 and 6). On day 8, all media was removed and the cells were washed with Dulbecco's Phosphate-Buffered Saline (DPBS, Gibco) to remove any loosely-adherent cells. The BMDMs were harvested with StemPro Acutase (1 mL/well, 15 minutes at room temperature, Gibco) and seeded onto a pre-coated 96-well plate. The supernatant was collected and analysed for cytokine/chemokine production after 24 hours.
Cytokine analysis: IL-1β, IFN-γ, IL-6, TNF-α (BD Biosciences), IL-17, and MIP-2 (R&D) levels were determined via sandwich ELISA according to the manufacturer's instructions.
First, the ability of the compounds to activate GM-CSF BMDMs was determined by monitoring the secretion of the inflammatory cytokines TNF, IL-6, and IL-1β and the chemokine, MIP-2, in a ligand-coated plate assay (FIG. 2).
To gain insight into the capacity of the 2G-series of brartemicin analogues to induce an inflammatory immune response, the analogues were then screened for their ability to activate WT and Mincle^−/− BMDMs, with cellular activation being determined by the measurement of IL-1B using ELISA (FIG. 6).

[5] = target: T4, hMincle+FcRγ (Homo sapiens, UniProt Q9ULY5); experiment: 2B4-NFAT-GFP reporter cells expressing hMincle+FcRγ; type: cell-based; settings: ligand-coated plates 0.01, 0.1 or 1 nmol/well, 18 hours
T4 construct: expressed in transfected cells; host or cells: 2B4-NFAT-GFP reporter cells
T4 sequence (Q9ULY5 1-219): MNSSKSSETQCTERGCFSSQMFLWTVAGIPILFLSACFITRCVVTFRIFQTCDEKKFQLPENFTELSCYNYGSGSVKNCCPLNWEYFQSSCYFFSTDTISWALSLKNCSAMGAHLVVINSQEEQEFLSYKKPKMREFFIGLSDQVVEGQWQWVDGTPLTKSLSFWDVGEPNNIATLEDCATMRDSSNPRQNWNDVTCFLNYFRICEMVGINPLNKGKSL
Protocol: as §1, §4, §5, §6, §7

Structure (SMILES) | binding to hMincle-Ig (ELISA, OD at 450 nm) [1] | binding to mMincle-Ig (ELISA, OD at 450 nm) [2] | activation of mMincle NFAT-GFP reporter cells (GFP by flow cytometry) [3] | IL-1β production [4] | IL-6 production [4] | MIP-2 production [4] | TNF production [4] | activation of hMincle NFAT-GFP reporter cells (GFP by flow cytometry) [5] | activation of mMincle NFAT-GFP reporter cells (GFP by flow cytometry) ([3]; listed as Brartemicin) | activation of BMDMs [4]
CCCCCCCOc1ccc(C(=O)OCC2O[C@H](O[C@H]3OC(COC(=O)c4ccc(OCCCCCCC)cc4O)[C@@H](O)C(O)C3O)C(O)C(O)[C@@H]2O)c(O)c1 (stereo partly drawn) [9b, 6,6′-Di-O-(4-heptyloxy-2-hydroxybenzoyl)-α,α′-D-trehalose] | good binding | good binding | activated mMincle and hMincle NFATGFP reporter cells but to a lesser extent than the C18 analogues | modest production | modest production | modest production | modest production | activated mMincle and hMincle NFATGFP reporter cells but to a lesser extent than the C18 analogues |  | 
CCCCOc1ccc(C(=O)OCC2O[C@H](O[C@H]3OC(COC(=O)c4ccc(OCCCC)cc4O)[C@@H](O)C(O)C3O)C(O)C(O)[C@@H]2O)c(O)c1 (stereo partly drawn) [9c, 6,6′-Di-O-(2-hydroxy-4-butoxybenzoyl)-α,α′-D-trehalose] | did not bind hMincle- or mMincle-Ig to any great extent | did not bind hMincle- or mMincle-Ig to any great extent | able to activate mMincle and hMincle only at high ligand concentrations |  |  | induced MIP-2 |  | able to activate mMincle and hMincle only at high ligand concentrations |  | 
COc1ccc(C(=O)OCC2O[C@H](O[C@H]3OC(COC(=O)c4ccc(OC)cc4O)[C@@H](O)C(O)C3O)C(O)C(O)[C@@H]2O)c(O)c1 (stereo partly drawn) [9d, 6,6′-Di-O-(2-hydroxy-4-methoxybenzoyl)-α,α′-D-trehalose] | did not bind hMincle- or mMincle-Ig to any great extent | did not bind hMincle- or mMincle-Ig to any great extent |  | did not induce the production of any of the cytokines measured | did not induce the production of any of the cytokines measured | did not induce the production of any of the cytokines measured | did not induce the production of any of the cytokines measured | only modest activation of hMincle at a high ligand concentration |  | 
O=C(OCC1O[C@H](O[C@H]2OC(COC(=O)c3ccc(O)cc3O)[C@@H](O)C(O)C2O)C(O)C(O)[C@@H]1O)c1ccc(O)cc1O (stereo partly drawn) [9e, 6,6′-Di-O-(2,4-dihydroxybenzoyl)-α,α′-D-trehalose] | did not bind hMincle- or mMincle-Ig to any great extent | did not bind hMincle- or mMincle-Ig to any great extent | did not significantly activate mMincle | did not induce the production of any of the cytokines measured | did not induce the production of any of the cytokines measured | did not induce the production of any of the cytokines measured | did not induce the production of any of the cytokines measured |  |  | 
CCCCCCCOc1cc(C)c(C(=O)OCC2O[C@H](O[C@H]3OC(COC(=O)c4c(C)cc(OCCCCCCC)cc4O)[C@@H](O)C(O)C3O)C(O)C(O)[C@@H]2O)c(O)c1 (stereo partly drawn) [9h, 6,6′-Di-O-(4-heptyloxy-2-hydroxy-6-methylbenzoyl)-α,α′-D-trehalose] | good binding | good binding | strongly activated | significant production | significant production | significant production | significant production | strongly activated |  | 
Cc1cc(O)cc(O)c1C(=O)OC[C@H]1O[C@H](O[C@H]2O[C@H](COC(=O)c3c(C)cc(O)cc3O)[C@@H](O)[C@H](O)[C@H]2O)[C@H](O)[C@@H](O)[C@@H]1O [9i, Brartemicin] | did not bind hMincle- or mMincle-Ig to any great extent | did not bind hMincle- or mMincle-Ig to any great extent | did not significantly activate mMincle | did not induce the production of any of the cytokines measured | did not induce the production of any of the cytokines measured | did not induce the production of any of the cytokines measured | did not induce the production of any of the cytokines measured | not to activate | not to activate | not to activate
